# Source: patent US4447439A, “2-Cyclic amino-2-(1,2-benzisoxazol-3-yl)acetic acid ester derivatives, process for the preparation thereof and composition containing the same” (priority 1981, dated 1984)
# Where a name gives a salt, the structure may show the parent alone. Read-outs that look alike come from different tables or passages of the source.
# Key:
# [1] = test system: spontaneous gastric motility; assay: Inhibitory effect on spontaneous gastric motility (Anti-SGM); set-up: species or system male Wistar strain rats; settings: Rattus norvegicus; conscious rats, fasted 18 hours, oral; read-out: ID50 Anti-SGM (antispasmodic activity in vivo)
# Description: (2) Inhibitory effect on spontaneous gastric motility (Anti-SGM)
# (§1) This effect was examined using male Wistar strain rats, weighing about 250 g, with chronically implanted strain gauge force transducer as mentioned in the experiment (1). The rats were usually allowed to stand for 3-5 days for recovery from the surgery and fasted for 18 hours before experiment. Then, spontaneous gastric motility in conscious rats were recorded and the sum of amplitude of each contraction was calculated every 15 minutes. Inhibitory effect of test compound by oral administration was expressed as a percent inhibition of initial spontaneous motility.
# [2] = test system: stomach (contractile response induced by carbachol); assay: Inhibitor effect on contractile response induced by carbachol (Anti-Car); set-up: species or system male Wistar strain rats; settings: Rattus norvegicus, iv; anesthetized rats, carbachol 10 μg/kg, i.v.; read-out: ID50 Anti-Car (antispasmodic activity in vivo)
# Description: (1) Inhibitor effect on contractile response induced by carbachol (Anti-Car)
# This effect was examined using the strain gauge force transducer as described by X. B. Pascaud et al. [cf. Am. […] The transducer was sutured on the serosa of the stomach in anesthetized male Wistar strain rats, weighing about 250 g. This transducer can record simultaneously contractions and tone variation of the muscle. The contractile response induced by carbachol (10 μg/kg, i.v.) was estimated before and after administration of test compound. Inhibitory effect of test compound was expressed as a percent inhibition of the response.
# [3] = Mydriatic activity; settings: rat, in vivo, po
# Description: (§3) This activity was examined according to the method of P. Pelewka [cf.
# [4] = test system: section of the ileum (contractile response induced by transmural stimulation); assay: Inhibitory effect on contractile response induced by transmural stimulation (Anti-TMS); assay type: cell-based, male Hartley strain guinea pig; settings: guinea pig ileum, transmural stimulation 5 Hz, 20-30 V, compound applied 20 minutes before; for IC50: Cavia porcellus, read-out: IC50 Anti-TMS (antispasmodic activity in vitro)
# Description: (1) Inhibitory effect on contractile response induced by transmural stimulation (Anti-TMS)
# From male Hartley strain guinea pig, weighing 300-350 g, section of the ileum about 3 cm in length was prepared and mounted in Tyrode's solution kept at 35° C. and oxygenated with 95% O2 --5% CO2, and responses of the ileum were recorded isotonically with an initial tension of 1 g. The ileum was stimulated electrically by the method of W. D. M. Paton [cf. […] The electrode was made of platinum and the intraluminal electrode was used at a frequency of 5 Hz and at a voltage sufficient to give a maximal response (20-30 V). Test compounds were applied 20 minutes before the stimulation.
# (§2) In the experiments (1) and (2), each compound was tested in three different concentrations.
# [5] = test system: section of the ileum (contractile response induced by acetylcholine); assay: Inhibitor effect on contractile response induced by acetylcholine (Anti-ACh); assay type: cell-based, male Hartley strain guinea pig; settings: guinea pig ileum, acetylcholine 2×10^-8 g/ml, compound applied 2 minutes before; for IC50: Cavia porcellus, read-out: IC50 Anti-ACh (antispasmodic activity in vitro)
# Description: (2) Inhibitor effect on contractile response induced by acetylcholine (Anti-ACh)
# In the same manner as described in the above experiment (1), ileum preparation was prepared and mounted in Tyrode's solution. The response of the ileum to acetylcholine (2×10^-8 g/ml) were recorded isotonically. Test compounds were applied 2 minutes before adding the acetylcholine.
# as §2
# [6] = Acute lethal toxicity; set-up: species or system male and female Jcl:SD strain rats; settings: rat, in vivo, po, single oral, 7 days
# [7] = Safety index (ED50 of mydriatic activity / ID50 of Anti-SGM); set-up: species or system male Wistar strain rats; settings: rat, in vivo, po
# Description: as §1, with “motility. ID50 value, i.e., the dose required for 50% inhibition of spontaneous motility, was determined from regression line calculated by the maximum percent inhibition at each dose level.” for “motility.”
# [8] = in vivo; settings: rat, po
# Description: as §3
SMILES,IC50 [4],IC50 [5],further results
"CN1[C@@H]2CC[C@H]1C[C@@H](OC(=O)C(CO)c1ccccc1)C2 (stereo partly shown) [Atropine sulfate, atropine sulfate, reference compound]",0.035 µg/mL,0.005 µg/mL,ED50 [1]: 1.7 mg/kg; ED50 [2]: 0.0084 mg/kg; ED50 [3]: 3.5 mg/kg
CCN1CCCC(OC(=O)C(c2noc3ccccc23)N2CCCCCC2)C1 (stereo not shown) [Example 3],0.11 µg/mL,0.042 µg/mL,–
CN1CCCC(OC(=O)C(c2noc3ccccc23)N2CCCCCC2)C1 (stereo not shown) [Example 8],0.11 µg/mL,0.039 µg/mL,–
"CN1CCC(OC(=O)C(c2noc3ccccc23)N2CCCCCC2)CC1 (stereo not shown) [Example 16, 1-methyl-4-piperidyl 2-hexamethyleneimino-2-(1,2-benzisoxazol-3-yl)acetate]",0.034 µg/mL,0.023 µg/mL,–
"CC[N+]1(C)CCC(OC(=O)C(c2noc3ccccc23)N2CCCCCC2)CC1.[I-] (stereo not shown) [Example 17(i), 1-ethyl-1-methyl-4-[2-hexamethyleneimino-2-(1,2-benzisoxazol-3-yl)acetoxy]piperidinium iodide]",0.14 µg/mL,–,"LD50 at 168 h ([6]; female rats): 6320 mg/kg; LD50 at 168 h ([6]; male rats): 5430 mg/kg; ED50 [1]: 26.3 mg/kg; selectivity ratio ([7]; ED50 of mydriatic activity divided by ID50 of Anti-SGM, read-out: Safety index): > 114; ED50 [2]: 0.0187 mg/kg; ED50 [3]: > 3000 mg/kg"
"C[N+]1(C)CCC(OC(=O)C(c2noc3ccccc23)N2CCCCCC2)CC1.[I-] (stereo not shown) [Example 20, 1,1-dimethyl-4-[2-hexamethyleneimino-2-(1,2-benzisoxazol-3-yl)acetoxy]piperidinium iodide]",0.12 µg/mL,0.02 µg/mL,–
"C[N+]1(C)CCC(OC(=O)C(c2noc3ccccc23)N2CCCCC2)CC1.[I-] (stereo not shown) [Example 21, 1,1-Dimethyl-4-[2-piperidino-2-(1,2-benzisoxazol-3-yl)acetoxy]piperidinium iodide]",0.09 µg/mL,0.032 µg/mL,–
CC[N+]1(C)CCCC(OC(=O)C(c2noc3ccccc23)N2CCCCCC2)C1 (stereo not shown) [Example 22],0.096 µg/mL,0.022 µg/mL,–
CC1CCCN(C(C(=O)OC2CC[N+](C)(C)CC2)c2noc3ccccc23)C1 (stereo not shown) [Example 23],0.074 µg/mL,0.036 µg/mL,–
C[N+]1(C)CCCC(OC(=O)C(c2noc3ccccc23)N2CCCCCC2)C1 (stereo not shown) [Example 24],0.1 µg/mL,0.036 µg/mL,–
C[N+]1(C)CCC(OC(=O)C(c2noc3ccccc23)N2CCCCCCC2)CC1 (stereo not shown) [Example 27],0.088 µg/mL,0.014 µg/mL,–
C[N+]1(C)CCC(OC(=O)C(c2noc3ccccc23)N2CCCCCC2)CC1 (stereo not shown) [Example 28],–,–,IC50 Anti-TMS (antispasmodic activity in vitro) [4]: 0.1 µg/mL; IC50 Anti-ACh (antispasmodic activity in vitro) [5]: 0.013 µg/mL
CC[N+]1(C)CCC(OC(=O)C(c2noc3ccccc23)N2CCCCCC2)CC1 (stereo not shown) [Example 30],0.18 µg/mL,0.064 µg/mL,–
CC[N+]1(C)CCC(OC(=O)C(c2noc3ccccc23)N2CCCCCC2)CC1 (stereo not shown) [Example 31],–,–,IC50 Anti-TMS (antispasmodic activity in vitro) [4]: 0.12 µg/mL; IC50 Anti-ACh (antispasmodic activity in vitro) [5]: 0.055 µg/mL
CC[N+]1(C)CCC(OC(=O)C(c2noc3ccccc23)N2CCCC2)CC1 (stereo not shown) [Example 33],0.18 µg/mL,0.032 µg/mL,–
CC[N+]1(C)CCC(OC(=O)C(c2noc3ccccc23)N2CCCCC2)CC1 (stereo not shown) [Example 34],–,0.033 µg/mL,IC50 ([4]; 20 min): 0.044 µg/mL
C[N+]1(C)CCC(OC(=O)C(c2noc3ccccc23)N2CCCCC2)CC1 (stereo not shown) [Example 36],0.11 µg/mL,0.029 µg/mL,–
CC1CCN(C(C(=O)OC2CC[N+](C)(C)CC2)c2noc3ccccc23)CC1 (stereo not shown) [Example 37],0.24 µg/mL,0.072 µg/mL,–
C[N+]1(C)CCC(OC(=O)C(c2noc3ccccc23)N2CCCCCC2)CC1 (stereo not shown) [Example 38],–,0.024 µg/mL,IC50 Anti-TMS (antispasmodic activity in vitro) [4]: 0.027 µg/mL
C[N+]1(C)CCC(OC(=O)C(c2noc3ccccc23)N2CCCC2)CC1 (stereo not shown) [Example 39],0.058 µg/mL,0.051 µg/mL,–
C[N+]1(C)CCC(OC(=O)C(c2noc3ccc(Cl)cc23)N2CCCCCC2)CC1 (stereo not shown) [Example 42],0.34 µg/mL,0.078 µg/mL,–
C[N+]1(C)CCC(OC(=O)C(c2noc3ccc(F)cc23)N2CCCCCC2)CC1 (stereo not shown) [Example 44],0.29 µg/mL,0.08 µg/mL,–
"CCCC[N+]1(C)C2CC(OC(=O)C(CO)c3ccccc3)CC1C1OC12 (stereo not shown) [Scopolamine-N-butyl bromide, scopolamine-N-butyl bromide, reference compound]",0.44 µg/mL,0.089 µg/mL,ED50 [1]: 100 mg/kg; selectivity ratio [7]: 2; ED50 [2]: 0.0201 mg/kg; ED50 [8]: 227 mg/kg
